The text below walks through data of patent publication US7446199B2, “Compositions useful as inhibitors of protein kinases” (Vertex Pharmaceuticals Incorporated, priority 2003, dated 2008).

In one test the target is GSK-3β, (AA 1-420) (Homo sapiens, UniProt P49841). Nature of the test: GSK-3 inhibition assay, coupled enzyme system. The format is biochemical. The settings on record: 20 μM ATP, 300 μM peptide, 20 nM GSK-3b, 30° C.; read-out: Ki values (GSK3). Here is the method: Compounds of the present invention were screened for their ability to inhibit GSK-3β, (AA 1-420) activity using a standard coupled enzyme system (Fox et al., Protein Sci. 1998, 7, 2249). Reactions were carried out in a solution containing 100 mM HEPES (pH 7.5), 10 mM MgCl2, 25 mM NaCl, 300 μM NADH, 1 mM DTT and 1.5% DMSO. Final substrate concentrations in the assay were 20 μM ATP (Sigma Chemicals, St Louis, Mo.) and 300 μM peptide (American Peptide, Sunnyvale, Calif.). Reactions were carried out at 30° C. and 20 nM GSK-3b. Final concentrations of the components of the coupled enzyme system were 2.5 mM phosphoenolpyruvate, 300 μM NADH, 30 μg/ml pyruvate kinase and 10 μg/ml lactate dehydrogenase.
Sequence of GSK-3β, (AA 1-420) (P49841 whole entry, the tested form may be a part): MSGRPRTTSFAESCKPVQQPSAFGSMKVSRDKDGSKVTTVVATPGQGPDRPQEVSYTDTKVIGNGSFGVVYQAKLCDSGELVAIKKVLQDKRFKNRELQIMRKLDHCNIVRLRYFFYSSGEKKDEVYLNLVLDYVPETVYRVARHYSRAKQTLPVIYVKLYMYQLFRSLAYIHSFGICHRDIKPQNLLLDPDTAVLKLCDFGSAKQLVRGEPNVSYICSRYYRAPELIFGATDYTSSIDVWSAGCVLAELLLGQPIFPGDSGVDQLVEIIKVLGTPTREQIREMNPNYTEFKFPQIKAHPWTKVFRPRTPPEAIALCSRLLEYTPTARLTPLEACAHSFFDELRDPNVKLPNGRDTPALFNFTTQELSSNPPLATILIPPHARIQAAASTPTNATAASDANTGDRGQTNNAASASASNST
An assay stock buffer solution was prepared containing all of the reagents listed above with the exception of ATP and the test compound of the present invention. The assay stock buffer solution (175 μl) was incubated in a 96 well plate with 5 μl of the test compound of the present invention at final concentrations spanning 0.002 μM to 30 μM at 30° C. for 10 min. Typically, a 12 point titration was conducted by preparing serial dilutions (from 10 mM compound stocks) with DMSO of the test compounds of the present invention in daughter plates. The reaction was initiated by the addition of 20 μl of ATP (final concentration 20 μM). Rates of reaction were obtained using a Molecular Devices Spectramax plate reader (Sunnyvale, Calif.) over 10 min at 30° C. The Ki values were determined from the rate data as a function of inhibitor concentration.

The target in another test is KDR (Homo sapiens, UniProt P35968). Nature of the test: KDR enzyme assay, coupled enzyme assay. The format is biochemical. The settings on record: 300 μM ATP, 10 μM poly E4Y, 30 nM KDR, 37° C. On the procedure: Compounds were screened for their ability to inhibit KDR using a standard coupled enzyme assay (Fox et al., Protein Sci., (1998) 7, 2249). Assays were carried out in a mixture of 200 mM HEPES 7.5, 10 mM MgCl2, 25 mM NaCl, 1 mM DTT and 1.5% DMSO. Final substrate concentrations in the assay were 300 μM ATP (Sigma Chemicals) and 10 μM poly E4Y (Sigma). Assays were carried out at 37° C. and 30 nM KDR. Final concentrations of the components of the coupled enzyme system were 2.5 mM phosphoenolpyruvate, 200 μM NADH, 30 μg/ML pyruvate kinase and 10 μg/ml lactate dehydrogenase.
Sequence of KDR (P35968 20-1356): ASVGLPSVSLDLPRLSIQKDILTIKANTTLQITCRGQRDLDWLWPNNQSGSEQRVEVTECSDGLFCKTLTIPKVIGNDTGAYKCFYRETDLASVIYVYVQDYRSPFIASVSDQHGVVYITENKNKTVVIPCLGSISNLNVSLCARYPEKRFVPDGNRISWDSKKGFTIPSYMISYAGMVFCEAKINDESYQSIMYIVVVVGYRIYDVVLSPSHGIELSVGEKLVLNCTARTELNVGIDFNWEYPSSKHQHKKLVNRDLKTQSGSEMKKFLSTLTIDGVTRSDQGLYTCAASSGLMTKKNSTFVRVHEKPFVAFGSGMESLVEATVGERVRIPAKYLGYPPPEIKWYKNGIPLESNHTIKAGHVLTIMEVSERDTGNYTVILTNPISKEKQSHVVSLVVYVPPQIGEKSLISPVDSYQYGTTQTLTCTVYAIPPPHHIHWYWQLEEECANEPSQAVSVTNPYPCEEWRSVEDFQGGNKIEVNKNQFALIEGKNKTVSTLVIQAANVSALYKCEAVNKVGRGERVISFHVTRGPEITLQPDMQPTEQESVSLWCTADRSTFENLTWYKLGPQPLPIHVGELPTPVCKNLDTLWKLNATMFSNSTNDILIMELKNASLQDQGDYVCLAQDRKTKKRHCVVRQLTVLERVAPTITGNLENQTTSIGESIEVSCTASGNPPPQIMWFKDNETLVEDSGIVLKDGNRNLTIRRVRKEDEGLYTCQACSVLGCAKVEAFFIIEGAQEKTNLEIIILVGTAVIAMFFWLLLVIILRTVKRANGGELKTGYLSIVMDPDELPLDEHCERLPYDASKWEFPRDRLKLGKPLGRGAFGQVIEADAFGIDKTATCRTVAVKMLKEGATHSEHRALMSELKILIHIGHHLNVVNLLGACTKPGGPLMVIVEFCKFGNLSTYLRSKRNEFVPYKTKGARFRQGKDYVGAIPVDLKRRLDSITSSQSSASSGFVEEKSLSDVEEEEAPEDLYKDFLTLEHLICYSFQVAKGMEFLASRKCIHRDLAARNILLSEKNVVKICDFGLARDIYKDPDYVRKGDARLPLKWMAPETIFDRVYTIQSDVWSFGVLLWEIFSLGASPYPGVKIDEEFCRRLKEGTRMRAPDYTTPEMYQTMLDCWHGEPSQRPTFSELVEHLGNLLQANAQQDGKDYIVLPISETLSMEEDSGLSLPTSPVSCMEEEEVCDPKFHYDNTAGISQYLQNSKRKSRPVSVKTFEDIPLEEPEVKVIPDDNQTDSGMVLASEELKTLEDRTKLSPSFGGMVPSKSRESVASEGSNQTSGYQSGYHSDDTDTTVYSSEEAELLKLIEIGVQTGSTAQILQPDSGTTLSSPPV
An assay stock buffer solution was prepared containing all of the reagents listed above, with the exception of ATP and the test compound of interest. 177 μl of the stock solution was placed in a 96 well plate followed by addition of 3 μl of 2 mM DMSO stock containing the test compound (final compound concentration 30 μM). The plate was preincubated for about 10 minutes at 37° C. and the reaction initiated by addition of 20 μl of ATP (final concentration 300 μM). Rates of reaction were obtained using a Molecular Devices plate reader (Sunnyvale, Calif.) over a 5 minute read time at 37° C.

The structures appear in SMILES notation. pKi: −log10 of the molar value.

With `CN1CCN(C(=O)[C@H]2C[C@H]2c2cnc3[nH]cc(-c4oncc4-c4cccc(F)c4F)c3c2)CC1` (relative stereo) [Compound 143, cis-(2-{3-[4-(2,3-Difluoro-phenyl)-isoxazol-5-yl]-1H-pyrrolo[2,3-b]pyridin-5-yl}-cyclopropyl)-(4-methyl-piperazin-1-yl)-methanone], the negative logarithm of the Ki (pKi) on GSK-3β, (AA 1-420) is 4.90 to 6.00.
As for `Fc1cccc(-c2cnoc2-c2c[nH]c3ncccc23)c1F` [Compound 1, 3-[4-(2,3-Difluoro-phenyl)-isoxazol-5-yl]-1H-pyrrolo[2,3-b]pyridine], the pKi at KDR is 4.90 to 6.00; on GSK-3β, (AA 1-420), 4.90 to 6.00.
Turning to `Clc1cccc(-c2cnoc2-c2c[nH]c3ncccc23)c1Cl` [Compound 2, 3-[4-(2,3-Dichloro-phenyl)-isoxazol-5-yl]-1H-pyrrolo[2,3-b]pyridine], the pKi is 6.00 to 6.70 at KDR and 4.90 to 6.00 on GSK-3β, (AA 1-420).
In the same order, the values of `Fc1cccc(Cc2cnoc2-c2c[nH]c3ncccc23)c1F` [Compound 36, 3-[4-(2,3-Difluoro-benzyl)-isoxazol-5-yl]-1H-pyrrolo[2,3-b]pyridine] are 4.90 to 6.00 and 6.00 to 6.70.
In the case of `Fc1cccc(-c2cnoc2-c2c[nH]c3ncc(Br)cc23)c1F` [Compound 37, 5-Bromo-3-[4-(2,3-difluoro-phenyl)-isoxazol-5-yl]-1H-pyrrolo[2,3-b]pyridine], the pKi is 6.00 to 6.70 at KDR and 6.00 to 6.70 on GSK-3β, (AA 1-420).
With `COc1cnc2[nH]cc(-c3oncc3-c3cccc(F)c3F)c2c1` [Compound 38, 3-[4-(2,3-Difluoro-phenyl)-isoxazol-5-yl]-5-methoxy-1H-pyrrolo[2,3-b]pyridine], the pKi was 6.00 to 6.70 on KDR and 6.00 to 6.70 on GSK-3β, (AA 1-420).
Consider `Fc1ccc(-c2cnoc2-c2c[nH]c3ncccc23)c(F)c1F` [Compound 40, 3-[4-(2,3,4-Trifluoro-phenyl)-isoxazol-5-yl]-1H-pyrrolo [2,3-b]pyridine], for which the pKi is 6.00 to 6.70 on KDR and 4.90 to 6.00 on GSK-3β, (AA 1-420).
`Fc1c(Cl)cccc1-c1cnoc1-c1c[nH]c2ncccc12` [Compound 42, 3-[4-(3-Chloro-2-fluoro-phenyl)-isoxazol-5-yl]-1H-pyrrolo[2,3-b]pyridine]: the pKi was 6.00 to 6.70 on KDR and 4.90 to 6.00 at GSK-3β, (AA 1-420).
For `Oc1cnc2[nH]cc(-c3oncc3-c3cccc(F)c3F)c2c1` [Compound 43, 3-[4-(2,3-Difluoro-phenyl)-isoxazol-5-yl]-1H-pyrrolo[2,3-b]pyridin-5-ol] the same measures were 6.00 to 6.70 and 6.00 to 6.70.
With `c1cnc2[nH]cc(-c3oncc3C3CCCCC3)c2c1` [Compound 47, 3-(4-Cyclohexyl-isoxazol-5-yl)-1H-pyrrolo[2,3-b]pyridine], the pKi at KDR was 4.90 to 6.00; on GSK-3β, (AA 1-420), 4.90 to 6.00.
For `Oc1cnc2[nH]cc(-c3oncc3-c3cccc(Cl)c3Cl)c2c1` [Compound 48, 3-[4-(2,3-Dichloro-phenyl)-isoxazol-5-yl]-1H-pyrrolo[2,3-b]pyridin-5-ol], the pKi is greater than 6.70 at KDR and 4.90 to 6.00 on GSK-3β, (AA 1-420).
With `COc1cnc2[nH]cc(-c3oncc3-c3cccc(Cl)c3Cl)c2c1` [Compound 49, 3-[4-(2,3-Dichloro-phenyl)-isoxazol-5-yl]-5-methoxy-1H-pyrrolo[2,3-b]pyridine], the pKi is greater than 6.70 at KDR and 6.00 to 6.70 on GSK-3β, (AA 1-420).
For `CN(C)CC#Cc1cnc2[nH]cc(-c3oncc3-c3cccc(F)c3F)c2c1` [Compound 53, (3-{3-[4-(2,3-Difluoro-phenyl)-isoxazol-5-yl]-1H-pyrrolo[2,3-b]pyridin-5-yl}-prop-2-ynyl)-dimethyl-amine] the same measures were 6.00 to 6.70 and 6.00 to 6.70.
`CN(C)c1ccnc2[nH]cc(-c3oncc3-c3cccc(F)c3F)c12` [Compound 56, {3-[4-(2,3-Difluoro-phenyl)-isoxazol-5-yl]-1H-pyrrolo[2,3-b]pyridin-4-yl}-dimethyl-amine] gave a pKi on KDR of 6.00 to 6.70.
For the compound `Fc1cccc(-c2cnoc2-c2c[nH]c3ncc(-c4ccncc4)cc23)c1F` [Compound 57, 3-[4-(2,3-Difluoro-phenyl)-isoxazol-5-yl]-5-pyridin-4-yl-1H-pyrrolo[2,3-b]pyridine], the pKi was 6.00 to 6.70 on KDR and 6.00 to 6.70 at GSK-3β, (AA 1-420).
With `Fc1cccc(-c2cnoc2-c2c[nH]c3ncc(-c4ccccc4)cc23)c1F` [Compound 58, 3-[4-(2,3-Difluoro-phenyl)-isoxazol-5-yl]-5-phenyl-1H-pyrrolo[2,3-b]pyridine], the pKi on KDR is greater than 6.70; at GSK-3β, (AA 1-420), 6.00 to 6.70.
In the same order, the values of `Fc1cccc(-c2cnoc2-c2c[nH]c3ncc(-c4cccnc4)cc23)c1F` [Compound 59, 3-[4-(2,3-Difluoro-phenyl)-isoxazol-5-yl]-5-pyridin-3-yl-1H-pyrrolo[2,3-b]pyridine] are 6.00 to 6.70 and 6.00 to 6.70.
With `CN1CCC(c2cnc3[nH]cc(-c4oncc4-c4cccc(F)c4F)c3c2)CC1` [Compound 60, 3-[4-(2,3-Difluoro-phenyl)-isoxazol-5-yl]-5-(1-methyl-piperidin-4-yl)-1H-pyrrolo[2,3-b]pyridine], the pKi on GSK-3β, (AA 1-420) was 6.00 to 6.70.
Take `CN(C)c1cccc(-c2cnc3[nH]cc(-c4oncc4-c4cccc(F)c4F)c3c2)c1` [Compound 61, (3-{3-[4-(2,3-Difluoro-phenyl)-isoxazol-5-yl]-1H-pyrrolo[2,3-b]pyridin-5-yl}-phenyl)-dimethyl-amine]: the negative logarithm of the Ki (pKi) at KDR is 6.00 to 6.70; on GSK-3β, (AA 1-420), 6.00 to 6.70.
Take `Fc1cccc(-c2cnoc2-c2c[nH]c3ncc(C4CCNCC4)cc23)c1F` [Compound 62, 3-[4-(2,3-Difluoro-phenyl)-isoxazol-5-yl]-5-piperidin-4-yl-1H-pyrrolo[2,3-b]pyridine]: the pKi is 4.90 to 6.00 at KDR and 6.00 to 6.70 at GSK-3β, (AA 1-420).
Take `CC(=O)N1CCC(c2cnc3[nH]cc(-c4oncc4-c4cccc(F)c4F)c3c2)CC1` [Compound 63, 1-(4-{3-[4-(2,3-Difluoro-phenyl)-isoxazol-5-yl]-1H-pyrrolo[2,3-b]pyridin-5-yl}-piperidin-1-yl)-ethanone]: the negative logarithm of the Ki (pKi) on KDR was 4.90 to 6.00; on GSK-3β, (AA 1-420) it was greater than 6.70.
For `N#CCC(=O)N1CCC(c2cnc3[nH]cc(-c4oncc4-c4cccc(F)c4F)c3c2)CC1` [Compound 64, 3-(4-{3-[4-(2,3-Difluoro-phenyl)-isoxazol-5-yl]-1H-pyrrolo[2,3-b]pyridin-5-yl}-piperidin-1-yl)-3-oxo-propionitrile] the same measures were 4.90 to 6.00 and greater than 6.70.
For `CC(=O)Nc1cccc(-c2cnc3[nH]cc(-c4oncc4-c4cccc(F)c4F)c3c2)c1` [Compound 65, N-(3-{3-[4-(2,3-Difluoro-phenyl)-isoxazol-5-yl]-1H-pyrrolo[2,3-b]pyridin-5-yl}-phenyl)-acetamide] the same measures were greater than 6.70 and 6.00 to 6.70.
For `C=Cc1cnc2[nH]cc(-c3oncc3-c3cccc(F)c3F)c2c1` [Compound 66, 3-[4-(2,3-Difluoro-phenyl)-isoxazol-5-yl]-5-vinyl-1H-pyrrolo[2,3-b]pyridine] the same measures were greater than 6.70 and 6.00 to 6.70.
With `CCN1CCC(c2cnc3[nH]cc(-c4oncc4-c4cccc(F)c4F)c3c2)CC1` [Compound 72, 3-[4-(2,3-Difluoro-phenyl)-isoxazol-5-yl]-5-(1-ethyl-piperidin-4-yl)-1H-pyrrolo[2,3-b]pyridine], the pKi at GSK-3β, (AA 1-420) was greater than 6.70.
At KDR, `Fc1cccc(-c2cnoc2-c2c[nH]c3ncc(-c4ccccn4)cc23)c1F` [Compound 73, 3-(4-(2,3-Difluoro-phenyl)-isoxazol-5-yl)-5-pyridin-2-yl-1H-pyrrolo[2,3-b]pyridine] had a pKi of 4.90 to 6.00.
Turning to `Fc1cccnc1-c1cnc2[nH]cc(-c3oncc3-c3cccc(F)c3F)c2c1` [Compound 74, 3-[4-(2,3-Difluoro-phenyl)-isoxazol-5-yl]-5-(3-fluoro-pyridin-2-yl)-1H-pyrrolo[2,3-b]pyridine], the pKi on KDR was 4.90 to 6.00.
Consider `O=c1[nH]ccc2c(-c3oncc3-c3cccc(F)c3F)c[nH]c12` [Compound 145, 3-[4-(2,3-Difluoro-phenyl)-isoxazol-5-yl]-1,6-dihydro-pyrrolo[2,3-c]pyridin-7-one], for which, at GSK-3β, (AA 1-420), the pKi was 6.00 to 6.70.

For orientation: pKi means the Ki on a negative log10 scale, so that one unit is a factor of ten.
